{"source": "patent US8188326B2", "about": "“Process for producing adamantane” (Mitsubishi Gas Chemical Company, Inc., priority 2008, dated 2012)", "assay_type": "physicochemical", "experimental": "FIG. 1 is a graph showing the measurement results of the solubility of adamantane (hereinafter, occasionally referred to simply as “ADM”) in TCD (mol %=ADM mol/(exo-TCD+endo-TCD+ADM)mol×100).\nSpecifically, at 80° C., with respect to the purity of 80% of mixed TCD containing exo-TCD of 99% and endo-TCD of 1% (hereinafter, referred to simply as “exo-TCD (99)”), the total ADM solubility is 20 mol %. […] It is preferable to control the yield (generation amount) of adamantane to be equal to or less than such a level of ADM solubility.", "data": [{"smiles": "C1C2CC3CC1CC(C2)C3", "note": "[adamantane, tricyclo[3.3.1.1^3,7]decane]", "values": [{"measurement": "total ADM solubility of adamantane with respect to TCD", "result": 12.3, "unit": "mol %"}]}]}
